The numbers were not newly measured in US6617356B2, “Gel system for oral and topical administration of water insoluble and/or water intolerant drugs and supplements” (priority 2000, dated 2003), which cites them from elsewhere.

The conditions of the data set: oral, 20 grams creatine monohydrate per day for five days.

Regarding `CN(CC(=O)O)C(=N)N.O` [creatine monohydrate], the “Muscle total creatine concentration” value is “increase”; the “Peak and total work production” value is “cumulative increase”.
